The values below come from patent US11117947B2, “Double-acylated GLP-1 derivatives” (Novo Nordisk A/S, priority 2011, dated 2021).

What all share (assay type): in vivo
The nature of data set [1]: Estimate of oral bioavailability: gut injection in rat (caprate), exposure in plasma. The following applies: injection in jejunum, 1000 uM in 55 mg/ml sodium caprate, plasma concentration (pM) at 30 min divided by dosing solution concentration (μM), mean n=4. In outline: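 Male Sprague Dawley rats (~240 g, n=4) received 100 μl of 1000 uM derivative in 55 mg/ml sodium caprate by catheter into proximal or mid jejunum. Tail-vein EDTA plasma was sampled up to 240 min. Peptide was quantified by two-antibody bead chemiluminescence immunoassay, giving mean concentration-time profiles (pmol/l).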

The nature of data set [2]: Half-life in minipigs after i.v. administration. The following applies: minipig, plasma, iv, male Göttingen minipigs, read-out: terminal half-life (converted). From the text:
By terminal half-life is generally meant the period of time it takes to halve a certain plasma concentration, measured after the initial distribution phase.

Data set [3] in a line: Pharmacokinetics in rat: half-life after i.v. administration. The following applies: plasma, iv, 6 nmol/kg, male Sprague Dawley rats, approximately 4 rats per group, read-out: t½/h (half-life in rat) (converted). As for the experimental part: In vivo pharmacokinetic studies in rats were performed with the GLP-1 derivatives of Examples 2, 10, 17-18, and 31, as described in the following. Semaglutide was included for comparison.
Male Sprague Dawley rats of same age with a body weight of approximately 400 g were obtained from Taconic (Denmark) and assigned to the treatments by simple randomisation on body weight, approximately 4 rats per group, so that all animals in each group were of similar body weight.
The GLP-1 derivatives (approximately 6 nmol/ml) were dissolved in 50 mM sodium phosphate, 145 mM sodium chloride, 0.05% tween 80, pH 7.4. Intravenous injections (1.0 ml/kg) of the compounds were given through a catheter implanted in the right jugular vein. Blood was sampled from vena sublingualis for 5 days post dosing. Blood samples (200 μl) were collected in EDTA buffer (8 mM) and then centrifuged at 4° C. and 10000 G for 5 minutes. Plasma samples were kept at −20° C. until analyzed for plasma concentration of the respective GLP-1 compound.
The plasma concentrations of the GLP-1 compounds were determined using a Luminescence Oxygen Channeling Immunoasssay (LOCI), generally as described for the determination of insulin by Poulsen and Jensen in Journal of Biomolecular Screening 2007, vol. 12, p. 240-247. The donor beads were coated with streptavidin, while acceptor beads were conjugated with a monoclonal antibody recognising a mid-/C-terminal epitope of the peptide. Another monoclonal antibody, specific for the N-terminus, was biotinylated. The three reactants were combined with the analyte and formed a two-sited immuno-complex. Illumination of the complex released singlet oxygen atoms from the donor beads, which were channeled into the acceptor beads and triggered chemiluminescence which was measured in an Envision plate reader. The amount of light was proportional to the concentration of the compound.
Plasma concentration-time profiles were analyzed using Phoenix WinNonLin ver. 6.2, Pharsight Inc., Mountain View, Calif., USA), and the half-life (T1/2) calculated using individual plasma concentration-time profiles from each animal.

SMILES strings stand for the structures. Numbered stars: 1 amine (or outer) side, 2 acyl side, 3 side chain; on linkers, the order of the positions; unused ones are H or OH. Side chains are listed from the residue outwards. Peptide text beside a SMILES is read from it. * marks the point of attachment. Decanoyl(10-(4-HOOC-PhO)) = O=C(O)c1ccc(OCCCCCCCCCC(=O)*)cc1; γGlu = O=C(O)[C@H](CCC(=O)[*:2])N[*:1]; C14 diacid = O=C(O)CCCCCCCCCCCCC(=O)*; AEEA = NCCOCCOCC(=O)O

As for `CC[C@H](C)[C@H](NC(=O)[C@H](Cc1ccccc1)NC(=O)[C@H](CCCCNC(=O)COCCOCCNC(=O)COCCOCCNC(=O)CC[C@H](NC(=O)CCCCCCCCCOc1ccc(C(=O)O)cc1)C(=O)O)NC(=O)[C@H](CCCNC(=N)N)NC(=O)[C@H](C)NC(=O)[C@H](C)NC(=O)[C@H](CCC(N)=O)NC(=O)[C@H](CCC(=O)O)NC(=O)[C@H](CCC(=O)O)NC(=O)[C@H](CC(C)C)NC(=O)[C@H](Cc1ccc(O)cc1)NC(=O)[C@H](CO)NC(=O)[C@H](CO)NC(=O)[C@@H](NC(=O)[C@H](CC(=O)O)NC(=O)[C@H](CO)NC(=O)[C@@H](NC(=O)[C@H](Cc1ccccc1)NC(=O)[C@@H](NC(=O)CNC(=O)[C@H](CCC(=O)O)NC(=O)[C@H](C)NC(=O)[C@@H](N)Cc1c[nH]cn1)[C@@H](C)O)[C@@H](C)O)C(C)C)C(=O)N[C@@H](CCC(=O)O)C(=O)N[C@@H](Cc1c[nH]c2ccccc12)C(=O)N[C@@H](CC(C)C)C(=O)N[C@H](C(=O)N[C@@H](CCCNC(=N)N)C(=O)NCC(=O)N[C@@H](CCCCNC(=O)COCCOCCNC(=O)COCCOCCNC(=O)CC[C@H](NC(=O)CCCCCCCCCOc1ccc(C(=O)O)cc1)C(=O)O)C(=O)NCC(=O)N[C@@H](CCC(=O)O)C(=O)NCC(=O)O)C(C)C` [Example 2, N^ε27-[2-[2-[2-[[2-[2-[2-[[(4S)-4-carboxy-4-[10-(4-carboxyphenoxy)decanoylamino]butanoyl]amino]ethoxy]ethoxy]acetyl]amino]ethoxy]ethoxy]acetyl], N^ε36-[2-[2-[2-[[2-[2-[2-[[(4S)-4-carboxy-4-[10-(4-carboxyphenoxy)decanoylamino]butanoyl]amino]ethoxy]ethoxy]acetyl]amino]ethoxy]ethoxy]acetyl]-[Glu^22,Arg^26,Lys^27,Glu^30,Arg^34,Lys^36]-GLP-1-(7-37)-peptidyl-Glu-Gly] (H-HAEGTFTSDVSSYLEEQAARK([AEEA-AEEA-γGlu-Decanoyl(10-(4-HOOC-PhO))])FIEWLVRGK([AEEA-AEEA-γGlu-Decanoyl(10-(4-HOOC-PhO))])GEG-OH; N-terminus and C-terminus assumed), in data set [1], the “Dose-corrected exposure at 30 min” value is 98. For the same compound, the half-life in data set [2] was 3.62 days; in data set [3] it was 1560 min.

Regarding `CC[C@H](C)[C@H](NC(=O)[C@H](Cc1ccccc1)NC(=O)[C@H](CCCCNC(=O)COCCOCCNC(=O)COCCOCCNC(=O)CC[C@H](NC(=O)CCCCCCCCCOc1ccc(C(=O)O)cc1)C(=O)O)NC(=O)[C@H](Cc1c[nH]cn1)NC(=O)[C@H](C)NC(=O)[C@H](C)NC(=O)[C@H](CCC(N)=O)NC(=O)CNC(=O)[C@H](CCC(=O)O)NC(=O)[C@H](CC(C)C)NC(=O)[C@H](Cc1ccc(O)cc1)NC(=O)[C@H](CO)NC(=O)[C@H](CO)NC(=O)[C@@H](NC(=O)[C@H](CC(=O)O)NC(=O)[C@H](CO)NC(=O)[C@@H](NC(=O)[C@H](Cc1ccccc1)NC(=O)[C@@H](NC(=O)CNC(=O)[C@H](CCC(=O)O)NC(=O)[C@H](C)NC(=O)[C@@H](N)Cc1c[nH]cn1)[C@@H](C)O)[C@@H](C)O)C(C)C)C(=O)N[C@@H](CCC(=O)O)C(=O)N[C@@H](Cc1c[nH]c2ccccc12)C(=O)N[C@@H](CC(C)C)C(=O)N[C@H](C(=O)N[C@@H](CCCNC(=N)N)C(=O)NCC(=O)N[C@@H](CCCCNC(=O)COCCOCCNC(=O)COCCOCCNC(=O)CC[C@H](NC(=O)CCCCCCCCCOc1ccc(C(=O)O)cc1)C(=O)O)C(=O)NCC(=O)N[C@@H](CCC(=O)O)C(=O)O)C(C)C` [Example 10, N^ε27-[2-[2-[2-[[2-[2-[2-[[(4S)-4-carboxy-4-[10-(4-carboxyphenoxy)decanoylamino]butanoyl]amino]ethoxy]ethoxy]acetyl]amino]ethoxy]ethoxy]acetyl], N^ε36-[2-[2-[2-[[2-[2-[2-[[(4S)-4-carboxy-4-[10-(4-carboxyphenoxy)decanoylamino]butanoyl]amino]ethoxy]ethoxy]acetyl]amino]ethoxy]ethoxy]acetyl]-[His^26,Lys^27,Glu^30,Arg^34,Lys^36]-GLP-1-(7-37)-peptidyl-Glu] (H-HAEGTFTSDVSSYLEGQAAHK([AEEA-AEEA-γGlu-Decanoyl(10-(4-HOOC-PhO))])FIEWLVRGK([AEEA-AEEA-γGlu-Decanoyl(10-(4-HOOC-PhO))])GE-OH; N-terminus and C-terminus assumed), the “Dose-corrected exposure at 30 min” value in data set [1] is 187. Moreover, the half-life in data set [3] was 1380 min.

Consider `CC[C@H](C)[C@H](NC(=O)[C@H](Cc1ccccc1)NC(=O)[C@H](CCCCNC(=O)COCCOCCNC(=O)COCCOCCNC(=O)CC[C@H](NC(=O)CCCCCCCCCCCCC(=O)O)C(=O)O)NC(=O)[C@H](CCCNC(=N)N)NC(=O)[C@@H](NC(=O)[C@H](C)NC(=O)[C@H](CCC(=O)O)NC(=O)[C@H](CCC(=O)O)NC(=O)[C@H](CCC(=O)O)NC(=O)[C@H](CC(C)C)NC(=O)[C@H](Cc1ccc(O)cc1)NC(=O)[C@H](CO)NC(=O)[C@H](CO)NC(=O)[C@@H](NC(=O)[C@H](CC(=O)O)NC(=O)[C@H](CO)NC(=O)[C@@H](NC(=O)[C@H](Cc1ccccc1)NC(=O)[C@@H](NC(=O)CNC(=O)[C@H](CCC(=O)O)NC(=O)[C@H](C)NC(=O)[C@@H](N)Cc1c[nH]cn1)[C@@H](C)O)[C@@H](C)O)C(C)C)C(C)C)C(=O)N[C@@H](C)C(=O)N[C@@H](Cc1c[nH]cn1)C(=O)N[C@@H](CC(C)C)C(=O)N[C@H](C(=O)N[C@@H](CCC(N)=O)C(=O)NCC(=O)N[C@@H](CCCNC(=N)N)C(=O)N[C@@H](CCCCNC(=O)COCCOCCNC(=O)COCCOCCNC(=O)CC[C@H](NC(=O)CCCCCCCCCCCCC(=O)O)C(=O)O)C(=O)O)C(C)C` [Example 17, N^ε27-[2-[2-[2-[[2-[2-[2-[[(4S)-4-carboxy-4-(13-carboxytridecanoylamino)butanoyl]amino]ethoxy]ethoxy]acetyl]amino]ethoxy]ethoxy]acetyl], N^ε37-[2-[2-[2-[[2-[2-[2-[[(4S)-4-carboxy-4-(13-carboxytridecanoylamino)butanoyl]amino]ethoxy]ethoxy]acetyl]amino]ethoxy]ethoxy]acetyl]-[Glu^22,Glu^23,Val^25,Arg^26,Lys^27,His^31,Gln^34,Lys^37]-GLP-1-(7-37)-peptide] (H-HAEGTFTSDVSSYLEEEAVRK([AEEA-AEEA-γGlu-C14 diacid])FIAHLVQGRK([AEEA-AEEA-γGlu-C14 diacid])-OH; N-terminus and C-terminus assumed), for which the “Dose-corrected exposure at 30 min” value in data set [1] was 168. Besides, the half-life in data set [3] was 600 min.
